Consider eleven molecules from PMC9924227, “IFITM proteins assist cellular uptake of diverse linked chemotypes” (Science (New York, N.Y.), 2022).

What all share (experiment): cells
In one test the test system is K562 CRISPRi. On the set-up: Cell viability dose-response in K562 CRISPRi/CRISPRa cells; IC50 from fitted curve. Particulars: Homo sapiens, non-targeting control sgRNA, read-out: Cell viability IC50 (nM) / NegCtrl sg. The text has this:
(§1) To further examine the breadth of linked chemotypes that might be assisted by IFITMs, we designed, synthesized, and characterized a new linked molecular glue inhibitor based on the natural product rocaglamide. Rocaglamide clamps the EIF4A1 helicase to 5’ untranslated regions (UTRs) of target mRNAs to inhibit the translation of downstream sequences ([64]). […] We reasoned that dimerization of rocaglamide through its amide position could be a chemically tractable means to simultaneously engage two proximal EIF4A1-RNA complexes within the cell. We designed a molecule, BisRoc-1 (fig. S9B), that links two rocaglamide monomers together with a linker length (35 heavy atoms) exceeding the distance separating two rocaglamide binding sites in the crystal structure (fig. S9A). […] Additionally, we evaluated the relationship between linker length and IFITM assistance by examining an analog series consisting of BisRoc-1 (PEG11), BisRoc-2 (PEG4), BisRoc-3 (PEG2), and rocaglamide (no linker) (fig. S9E). We treated our K562 CRISPRi and CRISPRa cells with these inhibitors and evaluated differences in potency resulting from IFITM expression modulation, as measured by half-maximal inhibitory concentration (IC50) shift in a cell viability assay (fig. S9, E and F, and data file S7). […] IFITMs assist the cellular activity of diverse linked chemotypes. (A) Heavy atom skeletons of compounds assessed for IFITM assistance (see also fig. S10 for chemical structures). Compounds were categorized as non-linked chemotypes (compounds 1–8, black), linked chemotypes with short linkers (compounds 9–14, gray), or linked chemotypes with long linkers (compounds 15–17, green). (B) Chemical-genetic interaction map of inhibitors in (A) with IFITM1, IFTM2, and IFITM3. Potency, as measured by dose-response IC50 in a cell viability assay (see also Fig. 1F, Fig. 3D, or fig. S9D for example source data), was normalized to that of non-sgRNA-expressing K562 CRISPRi or CRISPRa cells. Physicochemical properties, including molecular weight (MW) and number of rotatable bonds, with their respective traditional thresholds for drug-likeness are indicated (right). Data represent means of three biological replicates. (C) Map of chemical space populated by 304 kinase inhibitors in clinical development (black), 3270 PROTACs reported in the literature (gray), and 3 linked chemotypes described herein (green). Boundaries represent traditional guidelines for drug-likeness.

The next test concerns K562 CRISPRa. On the set-up: Cell viability dose-response in K562 CRISPRi/CRISPRa cells; IC50 from fitted curve. Particulars: Homo sapiens; sheet K562 CRISPRa IC50;; non-targeting control sgRNA; read-out: Cell viability IC50 (nM) / NegCtrl sg.
Excerpt: as §1

In the next test the test system is T1, K562.
T1 construct: engineered with CRISPRi or CRISPRa machinery, no sgRNA
On the set-up: dose-response cell viability assay in K562 CRISPRi/CRISPRa CML cells, IC50. Particulars: Homo sapiens, read-out: Cell viability IC50 (nM) / No sgRNA. The text has this:
To further examine the breadth of linked chemotypes that might be assisted by IFITMs, we designed, synthesized, and characterized a new linked molecular glue inhibitor based on the natural product rocaglamide. Rocaglamide clamps the EIF4A1 helicase to 5’ untranslated regions (UTRs) of target mRNAs to inhibit the translation of downstream sequences ([64]). […] We reasoned that dimerization of rocaglamide through its amide position could be a chemically tractable means to simultaneously engage two proximal EIF4A1-RNA complexes within the cell. We designed a molecule, BisRoc-1 (fig. S9B), that links two rocaglamide monomers together with a linker length (35 heavy atoms) exceeding the distance separating two rocaglamide binding sites in the crystal structure (fig. S9A). […] Additionally, we evaluated the relationship between linker length and IFITM assistance by examining an analog series consisting of BisRoc-1 (PEG11), BisRoc-2 (PEG4), BisRoc-3 (PEG2), and rocaglamide (no linker) (fig. S9E). We treated our K562 CRISPRi and CRISPRa cells with these inhibitors and evaluated differences in potency resulting from IFITM expression modulation, as measured by half-maximal inhibitory concentration (IC50) shift in a cell viability assay (fig. S9, E and F, and data file S7). […] Given the ubiquitous presence of IFITMs in cells, we hypothesized that the cellular uptake of other linked inhibitors in the literature could also be assisted by IFITMs. While not generally as large as the linked chemotypes described above, PROTACs are likewise composed of two chemical entities covalently attached by a flexible tether ([16]). Thus, we included four PROTACs (GMB-475, MZ1, BETd-260, and dBET6) and their non-linked parent inhibitors in an expanded survey of chemical-genetic interactions with IFITMs (Fig. 4A, fig. S10, and table S1). These compounds were evaluated in the same IFITM dependency analysis as the BisRoc linker series (Fig. 4B and data file S7). Using RapaLink-1 as a chemical benchmark, we observed that IFITM1, IFITM2, and IFITM3 overexpression sensitized cells to linked chemotypes (Fig. 4B; compounds 9-17). The inverse finding, resistance to linked chemotypes, resulted from gene knockdown (Fig. 4B). The trend observed in the BisRoc series was corroborated across the 9 bivalent molecules tested (Fig. 4B): the magnitudes of chemical-genetic interactions correlated with linker length which is reflected in inhibitor size (molecular weight) and flexibility (number of rotatable bonds). Linked chemotypes with long linkers were more IFITM-assisted than linked chemotypes with short linkers, and non-linked chemotypes (Fig. 4B; compounds 1-8) were not observed to be assisted by IFITMs (Fig. 4B). Despite their cellular activities, the physicochemical properties of the linked chemotypes largely violate Lipinski’s ([1]) and Veber’s ([2]) classic guidelines (Fig. 4, A to C, and table S1), raising the need for a revised drug design framework that considers IFITM-assisted uptake and other cellular import processes.  Fig. 4. IFITMs assist the cellular activity of diverse linked chemotypes. (A) Heavy atom skeletons of compounds assessed for IFITM assistance (see also fig. S10 for chemical structures). Compounds were categorized as non-linked chemotypes (compounds 1–8, black), linked chemotypes with short linkers (compounds 9–14, gray), or linked chemotypes with long linkers (compounds 15–17, green). (B) Chemical-genetic interaction map of inhibitors in (A) with IFITM1, IFTM2, and IFITM3. Potency, as measured by dose-response IC50 in a cell viability assay (see also Fig. 1F, Fig. 3D, or fig. S9D for example source data), was normalized to that of non-sgRNA-expressing K562 CRISPRi or CRISPRa cells. Physicochemical properties, including molecular weight (MW) and number of rotatable bonds, with their respective traditional thresholds for drug-likeness are indicated (right). Data represent means of three biological replicates. […]

Where [1] appears, read: sheet K562 CRISPRa IC50, no sgRNA.

Structures are written as SMILES. Like-named read-outs stand apart in the source and are kept apart here.

For the molecule `CO[C@@H]1C[C@@H]2CC[C@@H](C)[C@@](O)(O2)C(=O)C(=O)N2CCCC[C@@H]2C(=O)O[C@H]([C@H](C)C[C@H]2CC[C@H](OCCOCc3cn(CCOCCOCCOCCOCCOCCOCCOCCOCCC(=O)NCCCCn4nc(-c5ccc6oc(N)nc6c5)c5c(N)ncnc54)nn3)[C@H](OC)C2)CC(=O)[C@H](C)/C=C(/C)[C@H](O)[C@@H](OC)C(=O)[C@H](C)C[C@H](C)\C=C/C=C\C=C/1C` (stereo in doubt) [RapaLink-1], the IC50 in the test with K562 CRISPRi amounted to 1.25 nM; in the test on K562 CRISPRa, 2.07 nM; with K562 (setting [1]) it was 2.23 nM; in the test on K562 (Cells=K562 CRISPRi, no sgRNA), 1.19 nM.

Take `Cc1sc2c(c1C)C(c1ccc(Cl)cc1)=N[C@@H](CC(=O)OC(C)(C)C)c1nnc(C)n1-2` [JQ1]: the IC50 in the test on K562 CRISPRi worked out at 121 nM; in the test with K562 CRISPRa, 22.2 nM; in the test with K562 (setting [1]), 24.4 nM; in the test with K562 (Cells=K562 CRISPRi, no sgRNA), 118 nM.

On to `COc1ccc([C@@]23Oc4cc(OC)cc(OC)c4[C@]2(O)[C@H](O)[C@H](C(=O)N(C)C)[C@H]3c2ccccc2)cc1` [Rocaglamide], for which the IC50 in the test on K562 CRISPRi came out at 6.86 nM; with K562 CRISPRa, 6.97 nM; with K562 (setting [1]) it was 7.65 nM; in the test with K562 (Cells=K562 CRISPRi, no sgRNA), 7.23 nM.

Turning to `CCn1nc(C2CC2)cc1Nc1nc(C(=O)NCCCCCc2cccc3c2CN(C2CCC(=O)NC2=O)C3=O)nc2[nH]c3cc(-c4c(C)noc4C)c(OC)cc3c12` (centres unmarked) [BETd-260], the IC50 in the test on K562 CRISPRi was 3.88 nM; in the test on K562 CRISPRa, 1.04 nM; in the test on K562 (setting [1]) it was 1.15 nM; with K562 (Cells=K562 CRISPRi, no sgRNA), 3.79 nM.

Regarding `NC(=O)c1cccc(-c2cc(Nc3ccc(OC(F)(F)F)cc3)ncn2)c1` [GNF-2], the IC50 with K562 CRISPRi was found to be 284 nM; in the test on K562 CRISPRa it was 205 nM; with K562 (setting [1]), 202 nM; in the test with K562 (Cells=K562 CRISPRi, no sgRNA), 291 nM.

On to `CO[C@H]1C[C@@H]2CC[C@@H](C)[C@@](O)(O2)C(=O)C(=O)N2CCCC[C@H]2C(=O)O[C@H]([C@H](C)C[C@@H]2CC[C@@H](O)[C@H](OC)C2)CC(=O)[C@H](C)/C=C(\C)[C@@H](O)[C@@H](OC)C(=O)[C@H](C)C[C@H](C)/C=C/C=C/C=C/1C` [Rapamycin], for which the IC50 with K562 CRISPRi is 0.776 nM; in the test on K562 CRISPRa, 0.376 nM; with K562 (setting [1]), 0.356 nM; in the test on K562 (Cells=K562 CRISPRi, no sgRNA), 0.743 nM.

With `Cc1ncsc1-c1ccc(CNC(=O)[C@@H]2C[C@@H](O)CN2C(=O)[C@@H](NC(=O)COCCOCCOCCNC(=O)C[C@@H]2N=C(c3ccc(Cl)cc3)c3c(sc(C)c3C)-n3c(C)nnc32)C(C)(C)C)cc1` [MZ1], the IC50 in the test with K562 CRISPRi amounted to 146 nM; in the test on K562 CRISPRa, 33.3 nM; in the test on K562 (setting [1]), 31.4 nM; in the test on K562 (Cells=K562 CRISPRi, no sgRNA), 135 nM.

For `CCn1nc(C2CC2)cc1Nc1nc(C(=O)NC)nc2[nH]c3cc(-c4c(C)noc4C)c(OC)cc3c12` [HJB97], the IC50 with K562 CRISPRi came to 41.5 nM; in the test with K562 CRISPRa, 9.74 nM; in the test with K562 (setting [1]), 11.6 nM; in the test on K562 (Cells=K562 CRISPRi, no sgRNA), 46.8 nM.

With `Cc1ncsc1-c1ccc(CNC(=O)[C@@H]2C[C@@H](O)CN2C(=O)[C@@H](NC(=O)COCCOc2ccc(-c3cc(Nc4ccc(OC(F)(F)F)cc4)ncn3)cc2)C(C)(C)C)cc1` [GMB-475], the IC50 with K562 CRISPRi amounted to 249 nM; with K562 CRISPRa it was 179 nM; with K562 (setting [1]), 212 nM; in the test on K562 (Cells=K562 CRISPRi, no sgRNA), 264 nM.

Consider `Cc1sc2c(c1C)C(c1ccc(Cl)cc1)=N[C@@H](CC(=O)NCCCCCCCCNC(=O)COc1cccc3c1C(=O)N(C1CCC(=O)NC1=O)C3=O)c1nnc(C)n1-2` (some centres unmarked) [dBET6], for which the IC50 turned out to be 12.6 nM in the test on K562 CRISPRi; 3.04 nM with K562 CRISPRa; 3.26 nM with K562 (setting [1]); 11.7 nM in the test with K562 (Cells=K562 CRISPRi, no sgRNA).

With `CC(C)n1nc(-c2ccc3oc(N)nc3c2)c2c(N)ncnc21` [Sapanisertib], the IC50 in the test with K562 CRISPRi was determined as 24.4 nM; in the test with K562 CRISPRa, 15.3 nM; in the test with K562 (setting [1]) it was 14.2 nM; with K562 (Cells=K562 CRISPRi, no sgRNA), 24.6 nM.
